SMILES strings stand for the structures. Structures can show the parent of a compound that is named as a salt.

Data set [1] is described as follows: degradation kinetics of fluvastatin in aqueous solution at various pH. It counts as physicochemical. An excerpt: Certain HMG-CoA reductase inhibitors are extremely susceptible to degradation at pH below about 8. An example of such a compound comprises the compound having the USAN designation fluvastatin sodium (hereinafter “fluvastatin”), of the chemical designation: R*,S*-(E)(±)-7-[3-(4-fluorophenyl)-1-(1-methyl-ethyl)-1H-indol-2-yl]-3,5-dihydroxy-6-heptenoic acid, sodium salt, [see European Patent Application EP-A-114027].
For example, the degradation kinetics of fluvastatin in aqueous solution at various pH is illustrated below:
The above-indicated instability of fluvastatin and related HMG-CoA reductase compounds is believed to be due to the extreme lability of the β,δ-hydroxy groups on the heptenoic acid chain and the presence of the double bond, such that at neutral to acidic pH, the compounds readily undergo elimination or isomerization or oxidation reactions to form conjugated unsaturated aromatic compounds, as well as the threo isomer, the corresponding lactones, and other degradation products.

Data set [2] is described as follows: solubility of pitavastatin depending on pH. The following applies: acidic pH conditions. It counts as physicochemical.

Consider `CC(C)n1c(/C=C/C(O)CC(O)CC(=O)O)c(-c2ccc(F)cc2)c2ccccc21` (stereo not drawn) [fluvastatin, R*,S*-(E)(±)-7-[3-(4-fluorophenyl)-1-(1-methyl-ethyl)-1H-indol-2-yl]-3,5-dihydroxy-6-heptenoic acid, sodium salt], for which the “% fluvastatin remaining at 37° C.” value in data set [1] (pH 1.0, after 1 hour) is reported as 10.9%; in data set [1] (pH 1.0, after 24 hrs), 0%; in data set [1] (pH 4.0, after 1 hour), 86.7%; in data set [1] (pH 4.0, after 24 hrs), 25.2%; in data set [1] (pH 6.0, after 1 hour), 99.6%; in data set [1] (pH 6.0, after 24 hrs) it was 97.1%. Further, the “% fluvastatin remaining at 37° C.” value in data set [1] (pH 7.8, after 1 hour) was found to be 98.3%; in data set [1] (pH 7.8, after 24 hrs), 98.0%.
Consider `O=C(O)C[C@H](O)C[C@H](O)/C=C/c1c(C2CC2)nc2ccccc2c1-c1ccc(F)cc1` [pitavastatin], for which the solubility of pitavastatin result in data set [2] was “higher”.
